Here are results for seven compounds from PubChem BioAssay (NCI).

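Exposure lasted 48 hours, with cells grown in 96-well plates and compounds tested at five concentrations. The concentration for 50% growth inhibition is given as GI50. TGI is the concentration that stops growth completely.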 Some results are limits rather than exact numbers.

Among the test systems are HL-60(TB) leukemia; UO-31 renal; NCI-H226 lung; SF-539 CNS; COLO 205 colon; SN12C renal; T-47D breast; OVCAR-8 ovarian; M14 melanoma; OVCAR-5 ovarian.
Holding throughout (experiment): NCI anticancer screen, dose series, 48 h

As for `Cn1nc(C(F)(F)F)cc1-c1cc(Cl)c(OCc2ccc(Cl)cc2)c(-c2ccc(Cl)c(C(F)(F)F)c2)c1O`, the GI50 with HL-60(TB) leukemia was 1.12 µM; in the test on UO-31 renal it was 1.12 µM; in the test with NCI-H226 lung, 1.36 µM; in the test on SF-539 CNS, 1.07 µM; in the test with COLO 205 colon it was 0.718 µM; with SN12C renal, 0.785 µM. The GI50 in the test with T-47D breast was 0.435 µM; in the test on OVCAR-8 ovarian it was 1.2 µM; in the test on M14 melanoma, 1.16 µM; with OVCAR-5 ovarian, 1.72 µM. In addition, the TGI was found to be 2.49 µM in the test on HL-60(TB) leukemia; 3.51 µM with UO-31 renal; 4.3 µM in the test with NCI-H226 lung; 3.26 µM in the test on SF-539 CNS; 2.39 µM in the test on COLO 205 colon; 4.58 µM in the test with SN12C renal. Further, the TGI with T-47D breast was 2.96 µM; in the test on OVCAR-8 ovarian, 5.41 µM; in the test with M14 melanoma, 2.93 µM; with OVCAR-5 ovarian, 7.4 µM.

`CC(NNC(=S)N1CCN(c2ccccn2)CC1)c1nccc2ccccc12` (stereo not given): the TGI with HL-60(TB) leukemia came out at 1.18 µM; with UO-31 renal, 8.34 µM; in the test on NCI-H226 lung, 8.11 µM; in the test on SF-539 CNS, 6.43 µM; with COLO 205 colon it was 5.93 µM; with SN12C renal it was 11.3 µM. Also, the TGI in the test on T-47D breast was found to be 16.9 µM; in the test on OVCAR-8 ovarian, 15.7 µM; in the test on M14 melanoma, 2.46 µM; in the test with OVCAR-5 ovarian, 14.2 µM.

In the case of `COc1cc(OC)c(/C=C/C(=O)c2c(OC)cc(OC)cc2OC)c(OC)c1`, the GI50 was 0.637 µM in the test on HL-60(TB) leukemia; 2.23 µM in the test with UO-31 renal; 3.41 µM in the test with NCI-H226 lung; 1.27 µM with SF-539 CNS; 1.08 µM in the test with COLO 205 colon; 1.81 µM in the test with SN12C renal. Besides, the GI50 in the test on T-47D breast is 2.01 µM; in the test with OVCAR-8 ovarian, 3.43 µM; with M14 melanoma, 0.38 µM; in the test with OVCAR-5 ovarian it was 2.8 µM. Moreover, the TGI is 9.44 µM with HL-60(TB) leukemia; > 100 µM in the test on UO-31 renal; > 100 µM in the test on NCI-H226 lung; 3.31 µM in the test with SF-539 CNS; 3.96 µM in the test on COLO 205 colon; > 74.4 µM in the test with SN12C renal. Besides, the TGI with T-47D breast was > 100 µM; in the test with OVCAR-8 ovarian, > 100 µM; in the test on M14 melanoma it was 1.78 µM; with OVCAR-5 ovarian, 53 µM.

As for `Nc1ccc(C#Cc2ccccc2C#CCCCCO)cc1`, the GI50 in the test on HL-60(TB) leukemia was 23.4 µM; in the test on UO-31 renal it was 16.6 µM; with NCI-H226 lung, 17.5 µM; in the test with SF-539 CNS, 17.6 µM; in the test with COLO 205 colon it was 16.1 µM; in the test on SN12C renal it was 6.26 µM. The GI50 is 15.4 µM with T-47D breast, 17 µM in the test with OVCAR-8 ovarian, 14.1 µM in the test on M14 melanoma and 16.4 µM in the test on OVCAR-5 ovarian. Further, the TGI in the test with HL-60(TB) leukemia turned out to be 44 µM; with UO-31 renal, 30.5 µM; in the test on NCI-H226 lung, 40.5 µM; with SF-539 CNS, 33.9 µM; in the test with COLO 205 colon, 30.1 µM; in the test with SN12C renal it was 20 µM. The TGI was found to be 30.7 µM with T-47D breast, 33.5 µM in the test with OVCAR-8 ovarian, 28.1 µM in the test on M14 melanoma and 31.3 µM in the test on OVCAR-5 ovarian.

Consider `Oc1c(C(Nc2ccccn2)c2ccccc2)ccc2cccnc12` (stereo not given), for which the TGI in the test on HL-60(TB) leukemia stood at 6.17 µM; in the test on UO-31 renal it was 41.4 µM; in the test with NCI-H226 lung it was 7.54 µM; in the test with SF-539 CNS, 9.68 µM; in the test on COLO 205 colon it was 65.9 µM; with SN12C renal, 17.4 µM. The TGI in the test on T-47D breast is > 31.6 µM; with OVCAR-8 ovarian, 23.7 µM; in the test with M14 melanoma, > 52.6 µM; with OVCAR-5 ovarian, > 100 µM.

Consider `COC(=O)C1=C(C)NC(=S)NC1c1ccc(N(CCCl)CCCl)cc1Cl` (stereo not given), for which the TGI is > 100 µM in the test with HL-60(TB) leukemia; > 80.7 µM with UO-31 renal; > 45.7 µM with NCI-H226 lung; > 100 µM in the test on SF-539 CNS; 59.7 µM in the test with COLO 205 colon; > 100 µM in the test with SN12C renal. For the same compound, the TGI with T-47D breast was > 55.4 µM; in the test on OVCAR-8 ovarian, > 100 µM; in the test on M14 melanoma, > 87.9 µM; in the test on OVCAR-5 ovarian, > 100 µM.

`COc1ccc2c3ccnc(C(F)(F)F)c3n(CCCCN)c2c1`: the GI50 was 4.78 µM with HL-60(TB) leukemia; 1.6 µM in the test with UO-31 renal; 7.42 µM in the test on NCI-H226 lung; 6.58 µM in the test with SF-539 CNS; 2.74 µM in the test on COLO 205 colon; 10.5 µM in the test on SN12C renal. Also, the GI50 with T-47D breast is 6.86 µM; in the test with OVCAR-8 ovarian, 8.95 µM; in the test with M14 melanoma, 4.93 µM; in the test with OVCAR-5 ovarian, 8.62 µM. For the same compound, the TGI is 20.1 µM with HL-60(TB) leukemia; 8.36 µM in the test with UO-31 renal; 30.5 µM in the test with NCI-H226 lung; 20.2 µM in the test on SF-539 CNS; 12.1 µM in the test with COLO 205 colon; 28.7 µM in the test on SN12C renal. Besides, the TGI with T-47D breast stood at 23.8 µM; with OVCAR-8 ovarian, 26.4 µM; in the test with M14 melanoma it was 17.3 µM; in the test with OVCAR-5 ovarian, 22.4 µM.
